We go through 8 compounds from PubChem BioAssay (NCI).

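Cultured in 96-well plates, cells were exposed to test compound for 48 hours across five concentrations. The concentration for 50% growth inhibition is given as GI50. The concentration for full growth arrest is given as TGI.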 Bounds are passed on as bounds.

Some test systems named below: A549 NSCLC; TK-10 renal; IGROV1 ovarian; OVCAR-5 ovarian; SF-539 CNS; UO-31 renal; SNB-19 CNS; EKVX NSCLC; CAKI-1 renal; HCC-2998 colon.
Experiment in all cases: DTP human tumour cell line panel, 48 h

Take `CCOC(=O)C(=Cc1c(-c2ccccc2)[nH]c2ccccc12)C(=O)OCC`: the GI50 (commonly the concentration at which growth is held to half of that of the control) in the experiment on A549 NSCLC was 6.34 µM; in the experiment on TK-10 renal it was 13.5 µM; in the experiment on IGROV1 ovarian it was 5.56 µM; in the experiment with OVCAR-5 ovarian it was 13.4 µM; with SF-539 CNS it was 14.4 µM; in the experiment with UO-31 renal, 3.92 µM. Also, the GI50 was 21.6 µM in the experiment on SNB-19 CNS, 10.8 µM in the experiment with EKVX NSCLC, 8.26 µM in the experiment with CAKI-1 renal and 10.1 µM in the experiment on HCC-2998 colon. The TGI (commonly the concentration giving total growth inhibition) in the experiment on A549 NSCLC is 24.5 µM; in the experiment with TK-10 renal it was 56.9 µM; in the experiment with IGROV1 ovarian, 23.7 µM; in the experiment on OVCAR-5 ovarian it was 41.8 µM; in the experiment with SF-539 CNS, 30.9 µM; with UO-31 renal, 17.1 µM. For the same compound, the TGI with SNB-19 CNS was above 64.3 µM; in the experiment on EKVX NSCLC, 54.1 µM; with CAKI-1 renal, above 49.8 µM; in the experiment on HCC-2998 colon it was 22.6 µM.

Take `COC12C=C/C(=C(/C(=O)OCc3csc(SC)n3)C(=O)CCCCCCCCC3(OC)C=C/C(=C(/C(=O)OCc4cnc(SC)s4)C(=O)CCCCCCCC1)O3)O2` (stereo not given): the GI50 in the experiment on A549 NSCLC is 4.65 µM; in the experiment with TK-10 renal, 15.8 µM; with IGROV1 ovarian it was 3.89 µM; with OVCAR-5 ovarian, 7.63 µM; in the experiment with SF-539 CNS it was 4.03 µM; in the experiment on UO-31 renal, 4.96 µM. Moreover, the GI50 in the experiment on SNB-19 CNS is 8.6 µM; in the experiment on EKVX NSCLC, 6.38 µM; in the experiment with CAKI-1 renal it was 70 µM; in the experiment on HCC-2998 colon, 2.34 µM. The TGI with A549 NSCLC is above 100 µM; with TK-10 renal, 74.8 µM; in the experiment with IGROV1 ovarian it was 83.6 µM; in the experiment on OVCAR-5 ovarian it was above 100 µM; with SF-539 CNS, 19.8 µM; with UO-31 renal, above 100 µM. The concentration for total growth inhibition (TGI) is above 100 µM with SNB-19 CNS, above 100 µM in the experiment on EKVX NSCLC, above 100 µM in the experiment on CAKI-1 renal and 5.11 µM in the experiment with HCC-2998 colon.

In the case of `Cc1cc(N(CCC#N)CCC#N)ccc1/C=C/C(=O)Nc1ccccc1Cl`, the TGI in the experiment on A549 NSCLC, in the experiment on TK-10 renal, in the experiment with IGROV1 ovarian, in the experiment with OVCAR-5 ovarian, in the experiment with SF-539 CNS and in the experiment on UO-31 renal was above 100 µM throughout. Also, the TGI with SNB-19 CNS, in the experiment with EKVX NSCLC, in the experiment with CAKI-1 renal and in the experiment on HCC-2998 colon was above 100 µM in each case.

Consider `N=C(N)SCC(=O)O`, for which the TGI in the experiment with A549 NSCLC, with TK-10 renal, with IGROV1 ovarian, in the experiment on OVCAR-5 ovarian, in the experiment on SF-539 CNS and in the experiment on UO-31 renal was above 100 µM each time. In addition, the TGI in the experiment with SNB-19 CNS, with EKVX NSCLC, with CAKI-1 renal and in the experiment on HCC-2998 colon was above 100 µM in each case.

For `CCCCCCCCCCCCNC(=O)[C@H]1CSC(c2ccsc2)N1` (stereo not given in full), the GI50 is 6.77 µM in the experiment on A549 NSCLC; 0.897 µM in the experiment with TK-10 renal; 0.96 µM with IGROV1 ovarian; 0.991 µM with OVCAR-5 ovarian; 0.902 µM with SF-539 CNS; 0.826 µM in the experiment with UO-31 renal. Moreover, the GI50 in the experiment on SNB-19 CNS was 0.952 µM; with EKVX NSCLC, 0.991 µM; with CAKI-1 renal, 0.898 µM; in the experiment on HCC-2998 colon, 0.955 µM. Also, the TGI was determined as 13.7 µM in the experiment on A549 NSCLC; 1.63 µM with TK-10 renal; 1.92 µM in the experiment on IGROV1 ovarian; 1.83 µM with OVCAR-5 ovarian; 1.7 µM in the experiment with SF-539 CNS; 1.51 µM in the experiment with UO-31 renal. For the same compound, the total growth inhibition concentration (TGI) with SNB-19 CNS was found to be 1.83 µM; in the experiment with EKVX NSCLC, 1.85 µM; in the experiment with CAKI-1 renal, 1.6 µM; with HCC-2998 colon, 2.15 µM.

Regarding `NC1(C(=O)O)CSSC1`, the GI50 was 3.37 µM with A549 NSCLC; 3.42 µM in the experiment with TK-10 renal; 3.91 µM in the experiment with IGROV1 ovarian; 33.2 µM in the experiment on OVCAR-5 ovarian; 7.55 µM in the experiment on SF-539 CNS; 3.68 µM in the experiment with UO-31 renal. The GI50 with SNB-19 CNS was 3.59 µM; in the experiment with EKVX NSCLC, 4.49 µM; in the experiment with CAKI-1 renal, 6.22 µM; in the experiment with HCC-2998 colon it was 16.1 µM. In addition, the concentration for total growth inhibition (TGI) is above 100 µM in the experiment with A549 NSCLC; 24.3 µM with TK-10 renal; 29.9 µM with IGROV1 ovarian; 90.1 µM in the experiment with OVCAR-5 ovarian; above 100 µM in the experiment with SF-539 CNS; 34.4 µM with UO-31 renal. Further, the concentration for total growth inhibition (TGI) in the experiment on SNB-19 CNS turned out to be 84 µM; in the experiment on EKVX NSCLC, 35 µM; in the experiment on CAKI-1 renal it was 40.5 µM; in the experiment on HCC-2998 colon it was 77.5 µM.

On to `O=C(Nc1nc2ccc(F)cc2s1)c1cccnc1Nc1ccc(Cl)cc1Cl`, for which the GI50 in the experiment on A549 NSCLC was 3.51 µM; in the experiment with TK-10 renal, 3.53 µM; with IGROV1 ovarian it was 3.66 µM; in the experiment with OVCAR-5 ovarian it was 7.71 µM; with SF-539 CNS, 4.15 µM; in the experiment on UO-31 renal it was 2.21 µM. Moreover, the GI50 in the experiment with SNB-19 CNS is 3.22 µM; in the experiment on EKVX NSCLC it was 2.02 µM; in the experiment with CAKI-1 renal, 1.91 µM; with HCC-2998 colon, 4.09 µM. Further, the TGI in the experiment on A549 NSCLC is 16.1 µM; in the experiment with TK-10 renal, 19.1 µM; with IGROV1 ovarian, above 23.6 µM; in the experiment on OVCAR-5 ovarian it was 28.9 µM; with SF-539 CNS, 15.3 µM; with UO-31 renal it was above 24.4 µM. For the same compound, the concentration for total growth inhibition (TGI) was 14.7 µM in the experiment on SNB-19 CNS, 16 µM with EKVX NSCLC, 8.71 µM in the experiment on CAKI-1 renal and 18.3 µM in the experiment on HCC-2998 colon.

Take `CC[C@H](C)[C@H](NC(=O)N[C@@H](C)c1ccccc1)C(=O)N(C)[C@H](C[C@@H](OC(C)=O)c1nc(C(=O)N[C@@H](Cc2ccccc2)C[C@H](C)C(=O)OC)cs1)C(C)C`: the GI50 in the experiment on A549 NSCLC was 67.3 µM; in the experiment on TK-10 renal it was 52 µM; in the experiment on IGROV1 ovarian, 20.9 µM; in the experiment with OVCAR-5 ovarian it was 27.9 µM; with SF-539 CNS, 20.2 µM; with UO-31 renal, 25.5 µM. In addition, the GI50 in the experiment with SNB-19 CNS was 28.6 µM; with EKVX NSCLC, 37.5 µM; in the experiment with CAKI-1 renal, 37.2 µM; in the experiment with HCC-2998 colon, 28.8 µM. Besides, the TGI in the experiment with A549 NSCLC was above 100 µM; in the experiment with TK-10 renal it was above 100 µM; in the experiment with IGROV1 ovarian it was above 100 µM; in the experiment with OVCAR-5 ovarian it was above 100 µM; in the experiment on SF-539 CNS, 56.6 µM; in the experiment with UO-31 renal, above 100 µM. Further, the total growth inhibition concentration (TGI) in the experiment on SNB-19 CNS, in the experiment with EKVX NSCLC, in the experiment with CAKI-1 renal and with HCC-2998 colon was above 100 µM throughout.
